# Reference: US8734863B2, “Bioactive fraction of Petiveria alliacea, pharmaceutical composition containing same, and combination with immunostimulants for treating cancer” (Pontificia Universidad Javeriana, priority 2009, dated 2014)
# Key:
# [1] = test system: tumour cell line NB4; assay: Chromatin condensation and nuclear fragmentation, hematoxylin-eosine and DAPI staining; type: cell-based, human; conditions: NB4, 24 h; S3 at 31.2 μg/mL
# Description: Hematoxylin-eosine and DAPI (4′,6-diamidino-2-phenylindole, Sigma) stained cells were monitored under microscope to evaluated the type of cell death induced by the S3 fraction. In brief, cells treated with S3 fraction for 24 h at 37° C. under humidified atmosphere and 5% CO2, were plated onto microscope slides by cytocentrifugation (Vybra cytospin, Japan) for 5 min at 500 rpm, fixed with ethanol and stained with hematoxylin (2 min) and eosin (45 seconds). Excess dye was removed with ethanol (3 washes) and microscope slides were monitored and photographed under a light microscope (Olympus CH30, Japan) at a magnification of 100×. For DAPI staining, cells plated on glass cover slides (13 mm/-E) previously collagen-precoated (6-10 μg/cm2) at a density of 5×10^4 cells for 16 h, were treated with S3 fraction at 37° C. under humidified atmosphere and 5% CO2 for 24 h. Subsequently, cells were washed (PBS) and fixed with paraformaldehyde (2% in PBS) for 30 min at 4° C. After washing twice with PBS-BSA (1%), cells were incubated in cold acetone (1 min); washed (1% PBS-BSA) and incubated for 5 min with DAPI 300 nM (Sigma, St. Louis, Mo.). Slides with prolong antifade kit (Molecular Probes) were observed under a fluorescence microscope (Olympus, Japan).
# [2] = test system: human peripheral blood mononuclear cells (PBMC); assay: Growth of human mononuclear cells, MTT; type: cell-based; conditions: PBMC with or without phytohemagglutinin, 30 h, F4 250 to 1.9 μg/ml
# Description: For assays in normal cells, human peripheral blood mononuclear cells (PBMC) from healthy volunteers were separated by density gradient centrifugation (Ficoll-Hypaque, Amersham, Biosciences). PBMC were suspended in RPMI-1640 supplemented medium (10% FBS, 2 mM L-glutamine, 100 U/ml penicillin, 100 μg/ml streptomycin, 0.01 M Hepes) and incubated under humidified environment at 37° C. and 5% CO2.
# Human PBMC were seeded (2×10^5 cells/well) on 96-well plates and incubated with or without phytohemagglutinin (PHA, GibcoBRL) for 12 h. Afterwards, PBMC were treated with F4 fraction (250 to 1.9 μg/ml), or vincristine for 30 h. After treatment cells were centrifuged, F4 fraction removed and lastly cells were carefully washed 3 times (PBS) before adding the MTT. Next 12 μl of MTT 12 mM [3-(4,5-dimethylthiazol-2-yl)-2,5-diphenyl tetrazolium bromide] (Molecular Probes, Eugene, Oreg., USA) in PBS was added to each well and incubated for 4 h at 37° C. Formazan crystals were dissolved with SDS-HCl 0.01M. MTT results were read at 540 nm in a Multiskan MCC/340 (LabSystems).
# [3] = test system: tumor cell line A375; assay: Cell cycle distribution, propidium iodide flow cytometry; type: cell-based, human; conditions: A375, F4 at 31.2 μg/mL; 18% in no treatment cells
# Description: After treatment, cells were washed and fixed with ethanol (ice-cold 70%) during 18 h. After fixing, cells were suspended in PBS 1×, 100 U/ml RNase, 50 μg/ml of propidium iodide (Sigma, St. Louis, Mo.) and incubated at room temperature for 30 min. Cell DNA content was measured by flow cytometry using a FACScalibur, (Becton Dickinson, Fullerton, Calif. For cytometric data 50,000 cellular events were collected per sample and analyzed with Cell Quest software (Becton Dickinson). Cell cycle distribution percentages are calculated by Modfit LT software. FACScalibur calibration is performed with the DNA QC Particle Kit (Becton Dickinson).
smiles,measurement,setting,value
CN[C@@H]1C[C@H]2O[C@@](C)([C@@H]1OC)n1c3ccccc3c3c4c(c5c6ccccc6n2c5c31)C(=O)NC4 [staurosporine],"type of cell death, hematoxylin-eosine staining",[1],nuclear fragmentation and DNA fragmentation
CC[C@]1(O)C[C@H]2CN(CCc3c([nH]c4ccccc34)[C@@](C(=O)OC)(c3cc4c(cc3OC)N(C=O)[C@H]3[C@@](O)(C(=O)OC)[C@H](OC(C)=O)[C@]5(CC)C=CCN6CC[C@]43[C@@H]65)C2)C1 [vincristine],effect over growth of normal mononuclear cells,[2],lack of effect
same,G2 phase accumulation,[3],~80%
